≈ marks a conversion by molar mass, not a printed value. Like-named read-outs stand apart in the source and are kept apart here. *1 amine or outer side, *2 acyl side, *3 side chain or, on linkers, in order; H or OH if unused. Where a SMILES comes first, the peptide text is derived from it. Bridges are numbered along the chain shown (N, C = ends). [ ]: non-standard residue; d: D form. The star is where a group is joined. hTyr(3S-OH,4S-OH,3'-OSO3H) = N[C@H](C(=O)O)[C@H](O)[C@@H](O)c1ccc(O)c(OS(=O)(=O)O)c1; Orn(4R-OH,5R-OH) = O=C([C@H](C[C@@H](O)[C@@H](O)N[*:3])N[*:1])[*:2]; Pro(3S-OH,4S-Me) = C[C@H]1CN[C@H](C(=O)O)[C@H]1O; X1 = CCCCCOc1ccc(-c2cc(-c3ccc(C(=O)*)cc3)no2)cc1; Gln(3R-OH) = NC(=O)C[C@@H](O)[C@H](N)C(=O)O; Hyp = O=C(O)[C@@H]1C[C@@H](O)CN1
Key:
Candida albicans = system: Candida albicans; set-up: method as in PMID 24153129, PMID 21300835; conditions: published for Candida albicans; cited from earlier work
[1] = ECMO patients vs non-ECMO patients; hemodialysis was used in 4 patients; cited from earlier work
Text: Adsorption by the hemoﬁlter appears to be the most likely explanation when this is in line with an ECMO system. In an “ex vivo” study, the recovery of micafungin was 91% when the in-line hemofilter was removed.

[2] = set-up: method as in PMID 25947367; conditions: daily dose of 100mg, cited from earlier work
candidemia = assay: Candidemia in patients on ECMO receiving prophylactic micafungin; type: in vivo, human; conditions: prophylactic micafungin 100mg, 12 adult ECMO patients
Procedure: (§1) We conducted an observational, prospective, noninterventional and nondrug-linked study of the PKs and safety of micafungin in adult patients treated with ECMO in two Spanish hospitals: the intensive care unit (ICU) of the Hospital Universitario Marqués de Valdecilla, Santander, and the Anaesthesiology and Reanimation Department of the Hospital Universitario La Fe, Valencia, Spain. Prophylactic micafungin was administered in all patients. The study period was from January 2015 until April 2016. The PK analysis was performed in the Hospital del Mar, Barcelona, Spain. The trial was authorized by the corresponding Ethics Committees (CEIC Approval Number 17/2014), and Informed Consent of all the patients or their legal representatives was obtained.

[3] = Micafungin plasma pharmacokinetics in adult patients treated with ECMO (samples before and after the oxygenation membrane); type: in vivo, human; conditions: for clearance / Vd / Cmax / AUC: human
Procedure: as §1
Micafungin was given at a dose of 100mg diluted in 100ml of 0.9% saline in a 60-minute infusion always protected from light to prevent degradation. Five mL blood samples were taken, protected from light, on days 1 and 4 of the treatment with micafungin. The samples were taken through an access point before and after the oxygenation membrane (input and output, respectively). The extraction times for the calculation of complete PK curves were as follows: before the administration of the drug (trough or zero time); immediately after intravenous infusion (1-hour peak or end-of-infusion peak); and 3, 5, 8, 18 and 24 hours after the beginning of the infusion. Samples were centrifuged at a speed of 1,000g for ten minutes at 4 °C. The supernatant plasma was aliquoted into volumes of 150µl that were frozen at -80 °C until they were to be analyzed. The measurement of the total micafungin concentration (free plus protein-bound fractions) was performed by means of a high-performance liquid chromatography technique.
The following PK parameters were calculated: area under the curve (AUC), CL, Vd and plasma half-life time (t/2) with a noncompartmental PK data analysis using a nonparametric method: the Mann-Whitney test and the Wilcoxon signed-rank test (paired test, in consecutive days). For precision analysis, confidence intervals were calculated by bootstrapping with 1,000 repetitions using the method […] (BCa).
The calculation of the differences in the concentration of micafungin at the input (Cin) and output (Cout) of the oxygenator membrane allowed us to calculate the oxygenator’s degree of extraction. It should be remembered that there may be losses of micafungin in tubes and cannula and in the centrifugal pump.
Only continuous epidemiological and clinical data are presented as the mean and standard deviation (SD), and categorical data are presented as absolute numbers because of the small sample size. The rest of the parameters, including Cmin and Cmax, are presented as medians.

In the case of `CCCCCOc1ccc(-c2cc(-c3ccc(C(=O)N[C@H]4C[C@@H](O)[C@@H](O)NC(=O)[C@@H]5[C@@H](O)[C@@H](C)CN5C(=O)[C@H]([C@H](O)CC(N)=O)NC(=O)[C@H]([C@H](O)[C@@H](O)c5ccc(O)c(OS(=O)(=O)O)c5)NC(=O)[C@@H]5C[C@@H](O)CN5C(=O)[C@H]([C@@H](C)O)NC4=O)cc3)no2)cc1` [micafungin] (X1-[Orn(4R-OH,5R-OH)]T[Hyp][hTyr(3S-OH,4S-OH,3'-OSO3H)][Gln(3R-OH)][Pro(3S-OH,4S-Me)]; lactam 1-C), the MIC90 (Candida albicans) is listed as 0.03 µg/mL (≈ 0.0236 µM), the “reduction in the AUC in the ECMO group versus non-ECMO control group” value [1] is listed as 23% and the “AUC after a daily dose of 100mg in ICU patients” value ([2]; ICU patients (without ECMO)) is listed as 78.6 mg·h/L. For the same compound, the “AUC after a daily dose of 100mg in healthy adults” value ([2]; healthy adults) was 132.6 mg·h/L, the “candidemia in patients on ECMO who received prophylactic micafungin” value (candidemia) was “No candidemia was observed” and the Cmin out ([3]; Table 2, day 1, after membrane, 100mg iv, ECMO patients, plasma HPLC, median) was 1410 ng/mL. For the same compound, the “CL in” value ([3]; Table 2, day 1, before membrane, 100mg iv, ECMO patients, noncompartmental, median) was 1.07 L/h, the “Cmin in” value ([3]; Table 2, day 1, before membrane, 100mg iv, ECMO patients, plasma HPLC, median) was 1410 ng/mL and the Cmin out ([3]; Table 2, day 4, after membrane, 100mg iv, ECMO patients, plasma HPLC, median) was 1750 ng/mL. For the same compound, the “Cmin in” value ([3]; Table 2, day 4, before membrane, 100mg iv, ECMO patients, plasma HPLC, median) was 1800 ng/mL, the “AUCin on day one” value ([3]; adult ECMO patients, 100mg 60-minute iv infusion, day 1, sample before the membrane, plasma total concentration by HPLC, noncompartmental, 95%CI 52.8 - 73.4, 10 patients) was 62100 ng·h/mL and the “AKI AUCout” value ([3]; day 1, ECMO patients with acute kidney injury, after membrane, 100mg iv, p = 0.71) was 69.3 p = 0.71. The “Hepatic failure AUCout” value ([3]; day 1, ECMO patients with hepatic failure, after membrane, 100mg iv, p = 0.91) was 61.6 p = 0.91, the “AKI AUCout” value ([3]; day 4, ECMO patients with acute kidney injury, after membrane, 100mg iv, p = 0.88) was 106.7 p = 0.88 and the “Hepatic failure AUCout” value ([3]; day 4, ECMO patients with hepatic failure, after membrane, 100mg iv, p = 0.68) was 85.2 p = 0.68. For the same compound, the “concentration difference between samples before the membrane (C in) and after the membrane (C out)” value ([3]; first day of treatment, 100mg iv, ECMO patients, figure 1A) was “did not show any concentration difference”, the “concentration difference between samples before the membrane (Cin) and after the membrane (Cout)” value ([3]; fourth day of treatment, 100mg iv, ECMO patients, figure 1B) was “did not show any concentration difference” and the clearance ([3]; plasma, iv, 100 mg, Table 2, day 1, after membrane, 100mg iv, ECMO patients, noncompartmental, median, read-out: CL out (converted)) was 16.5 mL/min. The Vd ([3]; plasma, iv, 100 mg, Table 2, day 1, after membrane, 100mg iv, ECMO patients, noncompartmental, median, read-out: Vd out) was 27.2 L, the Cmax ([3]; plasma, iv, 100 mg, Table 2, day 1, after membrane, 100mg iv, ECMO patients, plasma HPLC, median, read-out: Cmax out) was 4950 ng/mL and the AUC ([3]; plasma, iv, 100 mg, Table 2, day 1, after membrane, 100mg iv, ECMO patients, plasma HPLC, noncompartmental, median, read-out: AUC out) was 54100 ng·h/mL. For the same compound, the Vd ([3]; plasma, iv, 100 mg, Table 2, day 1, before membrane, 100mg iv, ECMO patients, noncompartmental, median, read-out: Vd in) was 28.6 L, the Cmax ([3]; plasma, iv, 100 mg, Table 2, day 1, before membrane, 100mg iv, ECMO patients, plasma HPLC, median, read-out: Cmax in) was 5850 ng/mL and the clearance ([3]; plasma, iv, 100 mg, Table 2, day 4, after membrane, 100mg iv, ECMO patients, noncompartmental, median, read-out: CL out (converted)) was 12.8 mL/min. It also gave a Vd ([3]; plasma, iv, 100 mg, Table 2, day 4, after membrane, 100mg iv, ECMO patients, noncompartmental, median, read-out: Vd out) of 18.1 L, a Cmax ([3]; plasma, iv, 100 mg, Table 2, day 4, after membrane, 100mg iv, ECMO patients, plasma HPLC, median, read-out: Cmax out) of 6750 ng/mL and an AUC ([3]; plasma, iv, 100 mg, Table 2, day 4, after membrane, 100mg iv, ECMO patients, plasma HPLC, noncompartmental, median, read-out: AUC out) of 81000 ng·h/mL. It also gave a clearance ([3]; plasma, iv, 100 mg, Table 2, day 4, before membrane, 100mg iv, ECMO patients, noncompartmental, median, read-out: CL in (converted)) of 11.8 mL/min, a Vd ([3]; plasma, iv, 100 mg, Table 2, day 4, before membrane, 100mg iv, ECMO patients, noncompartmental, median, read-out: Vd in) of 16.1 L and a Cmax ([3]; plasma, iv, 100 mg, Table 2, day 4, before membrane, 100mg iv, ECMO patients, plasma HPLC, median, read-out: Cmax in) of 12200 ng/mL. The AUC ([3]; plasma, iv, 100 mg, Table 2, day 4, before membrane, 100mg iv, ECMO patients, plasma HPLC, noncompartmental, median, read-out: AUC in) was 88800 ng·h/mL, the AUC ([3]; plasma, iv, 100 mg, day 1, ECMO patients without acute kidney injury, after membrane, 100mg iv, read-out: No AKI AUCout) was 61900 ng·h/mL and the AUC ([3]; plasma, iv, 100 mg, day 1, ECMO patients without hepatic failure, after membrane, 100mg iv, read-out: No hepatic failure AUCout) was 66100 ng·h/mL. For the same compound, the AUC ([3]; plasma, iv, 100 mg, day 4, ECMO patients without acute kidney injury, after membrane, 100mg iv, read-out: No AKI AUCout) was 95100 ng·h/mL, the AUC ([3]; plasma, iv, 100 mg, day 4, ECMO patients without hepatic failure, after membrane, 100mg iv, read-out: No hepatic failure AUCout) was 117000 ng·h/mL and the AUC ([3]; adult ECMO patients, 100mg 60-minute iv infusion, day 1, sample after the membrane, plasma HPLC, noncompartmental, 95%CI 52.4 - 76.7, 10 patients, read-out: AUCout on day one) was 63400 ng·h/mL.
